Laboratory results reported in patent US20200323897A1, “METHODS FOR DISTRIBUTING AGENTS TO AREAS OF BRAIN” (Medtronic, Inc., priority 2010, published 2020).

Key:
[1] = humans, intrathecal, constant rate of 0.5 ml/day; cited from earlier work
[2] = Infusion into the CSF at low flow rates (IT or ICV), overall statements on distribution; type: in vivo, rhesus monkey
From the text: (§1) CADD ambulatory infusion pumps were used to deliver gadolinium (Gd) labeled diethylene triamine pentaacetic acid (DTPA) or Gd-labeled albumin to rhesus monkeys, either intrathecally or intracerebroventricularly. Distribution of the Gd-labeled agents was tracked in-life via magnetic resonance imaging (MRI).

[3] = Intrathecal (L2) infusion at low flow rates, distribution tracked by MRI; type: in vivo, rhesus monkey
Experimental: as §1
(§2) For the Gd-DTPA studies, various concentrations of the Gd-DTPA were administered. The Gd-DTPA was administered intrathecally at L2 or intracerebroventricularly via a lateral ventricle at a variety of flow rates. Within a given monkey various flow rates were tested, followed by a washout period with phosphate buffered saline (PBS). An example study design that was used is presented below in Table 2:
While not detectable at lower concentrations, it is believed that the distribution of the lower concentration agent was similar to that observed at the 70 mg/ml concentration at similar flow rates. […] FIG. 6A is an MRI image of the same monkey prior to infusion of Gd-DTPA.
For the Gd-albumin studies, various concentrations of the Gd-albumin were administered intrathecally at L2 at various flow rates. FIGS. 9A-E are MRI images of rhesus monkeys receiving intrathecal Gd-albumin.

[4] = Intracerebroventricular (lateral ventricle) infusion at low flow rates, distribution tracked by MRI; type: in vivo, rhesus monkey; conditions: ICV
Experimental: as §1, §2
Referring now to FIGS. 8A-F, MM images of a rhesus monkey receiving various concentrations of Gd-DPTA intracerebroventricularly at various flow rates are shown. FIG. 8A is an MRI image of a monkey receiving PBS prior to infusion of the Gd-DPTA. FIG. 8B is an MM image of a monkey receiving 486 mg/ml at 0.048 ml/day. FIG. 8C is an MRI image of a monkey receiving 280 mg/ml at 0.1 ml/day. FIG. 8D is an MRI image of a monkey receiving 70 mg/ml at 0.4 ml/day. FIG. 8E is an MRI image of a monkey receiving 35 mg/ml at 0.8 ml/day. FIG. 8F is an MM image of a monkey receiving 22 mg/ml at 1.2 ml/day. […] Accordingly, broad distribution appears to be achievable at low flow rates, regardless of the CSF site of administration.
Referring now to FIGS. 11A-F, MRI images of a rhesus monkey receiving various concentrations of Gd-albumin intracerebroventricularly at various flow rates are shown. FIG. 11A is an MM image of a monkey receiving PBS prior to infusion of the Gd-albumin. FIG. 11B is an MM image of a monkey receiving 100 mg/ml at 0.1 ml/day at one day of infusion. FIG. 11C is an MRI image of a monkey receiving 100 mg/ml at 0.4 ml/day at one day of infusion. FIG. 11D is an MRI image of a monkey receiving 100 mg/ml at 0.4 ml/day at three days of infusion. FIG. 11E is an MRI image of a monkey receiving 100 mg/ml at 0.8 ml/day at one day of infusion. FIG. 11F is an MRI image of a monkey receiving 64 mg/ml at 1.2 ml/day at one day of infusion.

SMILES	supraspinal side effects [1]	distribution following infusion into the CSF [2]	uptake by brain tissue (FIG. 7B) ([3]; IT L2, 70 mg/ml, 2.4 ml/day)	distribution around the spinal cord (FIG. 7D) ([3]; IT L2, 70 mg/ml, 2.4 ml/day, steady state)	distribution in the CSF (FIG. 6) ([3]; IT L2, all flow rates of about 0.4 ml/day or greater)	distribution in the CSF ([3]; IT, 0.1 mL/day)	distribution in the CSF ([3]; IT, 0.4 mL/day, 70 mg/ml)	detectability by MRI ([3]; IT, 0.4 mL/day, lower concentrations (17.5 mg/ml, 5.8 mg/ml, 2.9 mg/ml))	MRI signal intensity ([3]; IT, 2.4 ml/day (100 microliters per hour))	steady state distribution in the CSF ([4]; 0.048 mL/day)	steady state distribution in the CSF ([4]; 0.1 mL/day)	distribution within the CSF ([4]; 0.1 mL/day for a period of 6 hours)	distribution in the CSF (FIG. 8) ([4]; flow rates of about 0.05 ml/day or greater, 22-486 mg/ml)
CN1CC[C@]23c4c5ccc(O)c4O[C@H]2[C@@H](O)C=C[C@H]3[C@H]1C5 [morphine]	do not appear to suffer from any supraspinal side effects												
NCC(CC(=O)O)c1ccc(Cl)cc1 (centres unmarked) [baclofen]	do not appear to suffer from any supraspinal side effects												
O=C([O-])CN(CCN(CC(=O)[O-])CC(=O)O)CCN(CC(=O)[O-])CC(=O)O.[Gd+3] [Gd-DTPA, gadolinium (Gd) labeled diethylene triamine pentaacetic acid (DTPA)]		broadly distributed	appears to be taken up by the parenchymal tissue of the brain	distributed in a circumferential manner around the intrathecal space	broad distribution was observed	confined the molecule in the IT space	broadly distributed throughout the CSF	not appreciably detectable by MRI	signal was most intense	evident in the CSF compartments in and around the brain, but not the spinal cord	complete CSF coverage	distributed broadly throughout the CSF in and around the brain and spinal cord	broadly distributed in the CSF, including in the intrathecal space
